# pIC50: −log10 of the molar value.
# Tested on: 898857-211-R-J1-PDC complex spheroids, growth % test/control
# Assay: Anticancer human tumor 898857-211-R-J1-PDC patient-derived melanoma cell line growth inhibition [RAS]
# Settings: for pIC50: curve of first compound; for viability, T/C: stronger effect = lower value
# Summary of the method: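 Multi-cell-type spheroids: tumor cells plus HUVEC endothelial cells and mesenchymal stem cells. RAS-pathway inhibitors were combined with targeted agents, each dosed in half-log steps down from clinical Cmax, or from 10 microM when Cmax was unknown.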
# [1] = second compound 0.00316 µM, first compound 0.0316 µM
# [2] = second compound 0.00316 µM, first compound 0.1 µM
# [3] = second compound 0.00316 µM, first compound 0.316 µM
# [4] = second compound 0.00316 µM, first compound 1 µM
# [5] = second compound 0.00316 µM, first compound 3.16 µM
# [6] = second compound 0.00316 µM, first compound 10 µM
# [7] = second compound 0.01 µM, first compound 0.0316 µM
# [8] = second compound 0.01 µM, first compound 0.1 µM
# [9] = second compound 0.01 µM, first compound 0.316 µM
# [10] = second compound 0.01 µM, first compound 1 µM
# [11] = second compound 0.01 µM, first compound 3.16 µM
# [12] = second compound 0.01 µM, first compound 10 µM
# [13] = second compound 0.0316 µM, first compound 0.0316 µM
# [14] = second compound 0.0316 µM, first compound 0.1 µM
# [15] = second compound 0.0316 µM, first compound 0.316 µM
# [16] = second compound 0.0316 µM, first compound 1 µM
# [17] = second compound 0.0316 µM, first compound 3.16 µM
# [18] = second compound 0.0316 µM, first compound 10 µM
# [19] = second compound 0.1 µM, first compound 0.0316 µM
# [20] = second compound 0.1 µM, first compound 0.1 µM
# [21] = second compound 0.1 µM, first compound 0.316 µM
# [22] = second compound 0.1 µM, first compound 1 µM
# [23] = second compound 0.1 µM, first compound 3.16 µM
# [24] = second compound 0.1 µM, first compound 10 µM
# [25] = second compound 0.316 µM, first compound 0.0316 µM
# [26] = second compound 0.316 µM, first compound 0.1 µM
# [27] = second compound 0.316 µM, first compound 0.316 µM
# [28] = second compound 0.316 µM, first compound 1 µM
# [29] = second compound 0.316 µM, first compound 3.16 µM
# [30] = second compound 0.316 µM, first compound 10 µM
# [31] = second compound 1 µM, first compound 0.0316 µM
# [32] = second compound 1 µM, first compound 0.1 µM
# [33] = second compound 1 µM, first compound 0.316 µM
# [34] = second compound 1 µM, first compound 1 µM
# [35] = second compound 1 µM, first compound 3.16 µM
# [36] = second compound 1 µM, first compound 10 µM
# 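Also: spheroids exposed to compound for seven days before readout.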
# 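For viability, T/C in this document: 100% = DMSO vehicle control wells.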
compound,measurement,setting,value
CC1(O)CCCC1n1c(=O)c(C(F)F)cc2cnc(NC3CCN(S(C)(=O)=O)CC3)nc21 (stereo not given) + C=CC(=O)N1CCN(c2nc(OCC3CCCN3C)nc3c(F)c(-c4nc(N)cc(C)c4C(F)(F)F)c(Cl)cc23)C(C)C1,pIC50,second compound 0.00316 µM,6.64
same,pIC50,second compound 0.01 µM,6.52
same,pIC50,second compound 0.0316 µM,6.60
same,pIC50,second compound 0.1 µM,6.54
same,pIC50,second compound 0.316 µM,6.50
same,pIC50,second compound 1 µM,6.64
same,"viability, T/C",[1],103%
same,"viability, T/C",[2],57.7%
same,"viability, T/C",[3],45.6%
same,"viability, T/C",[4],43.5%
same,"viability, T/C",[5],47.1%
same,"viability, T/C",[6],19.7%
same,"viability, T/C",[7],75.3%
same,"viability, T/C",[8],61%
same,"viability, T/C",[9],39%
same,"viability, T/C",[10],44.9%
same,"viability, T/C",[11],39.7%
same,"viability, T/C",[12],17.4%
same,"viability, T/C",[13],87.6%
same,"viability, T/C",[14],57.1%
same,"viability, T/C",[15],42.4%
same,"viability, T/C",[16],45.6%
same,"viability, T/C",[17],43.7%
same,"viability, T/C",[18],19.3%
same,"viability, T/C",[19],92.1%
same,"viability, T/C",[20],55.5%
same,"viability, T/C",[21],47.9%
same,"viability, T/C",[22],46.1%
same,"viability, T/C",[23],47.7%
same,"viability, T/C",[24],18.6%
same,"viability, T/C",[25],109%
same,"viability, T/C",[26],67%
same,"viability, T/C",[27],46%
same,"viability, T/C",[28],44.7%
same,"viability, T/C",[29],45.2%
same,"viability, T/C",[30],17.5%
same,"viability, T/C",[31],115%
same,"viability, T/C",[32],59.5%
same,"viability, T/C",[33],46.3%
same,"viability, T/C",[34],36%
same,"viability, T/C",[35],42.8%
same,"viability, T/C",[36],10.9%
CCC(CC)c1cc(NC2CCC(N)C2)n2nccc2n1 (stereo not given) + C=CC(=O)N1CCN(c2nc(OCC3CCCN3C)nc3c(F)c(-c4nc(N)cc(C)c4C(F)(F)F)c(Cl)cc23)C(C)C1,pIC50,second compound 0.00316 µM,6.09
same,pIC50,second compound 0.01 µM,6.07
same,pIC50,second compound 0.0316 µM,5.95
same,pIC50,second compound 0.1 µM,5.91
same,pIC50,second compound 0.316 µM,5.89
same,pIC50,second compound 1 µM,5.94
same,"viability, T/C",[1],119%
same,"viability, T/C",[2],97.5%
same,"viability, T/C",[3],81.5%
same,"viability, T/C",[4],49.1%
same,"viability, T/C",[5],1.15%
same,"viability, T/C",[6],0.2%
same,"viability, T/C",[7],114%
same,"viability, T/C",[8],97.8%
same,"viability, T/C",[9],81.7%
same,"viability, T/C",[10],51%
same,"viability, T/C",[11],0.97%
same,"viability, T/C",[12],0.25%
same,"viability, T/C",[13],104%
same,"viability, T/C",[14],104%
same,"viability, T/C",[15],102%
same,"viability, T/C",[16],56%
same,"viability, T/C",[17],1.12%
same,"viability, T/C",[18],0.25%
same,"viability, T/C",[19],95.5%
same,"viability, T/C",[20],110%
same,"viability, T/C",[21],101%
same,"viability, T/C",[22],60%
same,"viability, T/C",[23],1.01%
same,"viability, T/C",[24],0.21%
same,"viability, T/C",[25],123%
same,"viability, T/C",[26],119%
same,"viability, T/C",[27],104%
same,"viability, T/C",[28],66.3%
same,"viability, T/C",[29],1.11%
same,"viability, T/C",[30],0.26%
same,"viability, T/C",[31],120%
same,"viability, T/C",[32],117%
same,"viability, T/C",[33],101%
same,"viability, T/C",[34],59.7%
same,"viability, T/C",[35],0.94%
same,"viability, T/C",[36],0.24%
CCN1CCN(Cc2ccc(Nc3ncc(F)c(-c4cc(F)c5nc(C)n(C(C)C)c5c4)n3)nc2)CC1 + C=CC(=O)N1CCN(c2nc(OCC3CCCN3C)nc3c(F)c(-c4nc(N)cc(C)c4C(F)(F)F)c(Cl)cc23)C(C)C1,pIC50,second compound 0.00316 µM,6.44
same,pIC50,second compound 0.01 µM,6.50
same,pIC50,second compound 0.0316 µM,6.42
same,pIC50,second compound 0.1 µM,6.31
same,pIC50,second compound 0.316 µM,< 6.00
same,pIC50,second compound 1 µM,6.51
same,"viability, T/C","second compound 0.00316 µM, first compound 0.00316 µM",106%
same,"viability, T/C","second compound 0.00316 µM, first compound 0.01 µM",106%
same,"viability, T/C",[1],95.4%
same,"viability, T/C",[2],72.2%
same,"viability, T/C",[3],52.4%
same,"viability, T/C",[4],41.2%
same,"viability, T/C","second compound 0.01 µM, first compound 0.00316 µM",101%
same,"viability, T/C","second compound 0.01 µM, first compound 0.01 µM",106%
same,"viability, T/C",[7],86.6%
same,"viability, T/C",[8],80.2%
same,"viability, T/C",[9],45.7%
same,"viability, T/C",[10],40.2%
same,"viability, T/C","second compound 0.0316 µM, first compound 0.00316 µM",121%
same,"viability, T/C","second compound 0.0316 µM, first compound 0.01 µM",102%
same,"viability, T/C",[13],83.4%
same,"viability, T/C",[14],77%
same,"viability, T/C",[15],45.6%
same,"viability, T/C",[16],39.2%
same,"viability, T/C","second compound 0.1 µM, first compound 0.00316 µM",118%
same,"viability, T/C","second compound 0.1 µM, first compound 0.01 µM",96.4%
same,"viability, T/C",[19],98.2%
same,"viability, T/C",[20],79.2%
same,"viability, T/C",[21],56.4%
same,"viability, T/C",[22],36.3%
same,"viability, T/C","second compound 0.316 µM, first compound 0.00316 µM",112%
same,"viability, T/C","second compound 0.316 µM, first compound 0.01 µM",117%
same,"viability, T/C",[25],91.8%
same,"viability, T/C",[26],64.8%
same,"viability, T/C",[27],59%
same,"viability, T/C",[28],50.9%
same,"viability, T/C","second compound 1 µM, first compound 0.00316 µM",122%
same,"viability, T/C","second compound 1 µM, first compound 0.01 µM",114%
same,"viability, T/C",[31],102%
same,"viability, T/C",[32],67.4%
same,"viability, T/C",[33],53.8%
same,"viability, T/C",[34],38%
C[C@@H](NC(=O)c1ncnc(N)c1Cl)c1ncc(C(=O)Nc2cc(C(F)(F)F)c(Cl)cn2)s1 + C=CC(=O)N1CCN(c2nc(OCC3CCCN3C)nc3c(F)c(-c4nc(N)cc(C)c4C(F)(F)F)c(Cl)cc23)C(C)C1,pIC50,second compound 0.00316 µM,5.23
same,pIC50,second compound 0.01 µM,5.27
same,pIC50,second compound 0.0316 µM,5.24
same,pIC50,second compound 0.1 µM,5.27
same,pIC50,second compound 0.316 µM,5.18
same,pIC50,second compound 1 µM,5.29
same,"viability, T/C",[1],127%
same,"viability, T/C",[2],120%
same,"viability, T/C",[3],111%
same,"viability, T/C",[4],80.8%
same,"viability, T/C",[5],63.6%
same,"viability, T/C",[6],40%
same,"viability, T/C",[7],124%
same,"viability, T/C",[8],116%
same,"viability, T/C",[9],103%
same,"viability, T/C",[10],90.9%
same,"viability, T/C",[11],68.5%
same,"viability, T/C",[12],27.7%
same,"viability, T/C",[13],130%
same,"viability, T/C",[14],123%
same,"viability, T/C",[15],112%
same,"viability, T/C",[16],89.3%
same,"viability, T/C",[17],71.2%
same,"viability, T/C",[18],32.6%
same,"viability, T/C",[19],124%
same,"viability, T/C",[20],110%
same,"viability, T/C",[21],118%
same,"viability, T/C",[22],92.1%
same,"viability, T/C",[23],61.7%
same,"viability, T/C",[24],36.8%
same,"viability, T/C",[25],123%
same,"viability, T/C",[26],135%
same,"viability, T/C",[27],114%
same,"viability, T/C",[28],96.3%
same,"viability, T/C",[29],70.8%
same,"viability, T/C",[30],39.1%
same,"viability, T/C",[31],132%
same,"viability, T/C",[32],136%
same,"viability, T/C",[33],111%
same,"viability, T/C",[34],98.5%
same,"viability, T/C",[35],57.5%
same,"viability, T/C",[36],36.7%
Cc1nc(N2CCC3(CC2)COC(C)C3N)c(CO)nc1Sc1ccnc(N)c1Cl (stereo not given) + C=CC(=O)N1CCN(c2nc(OCC3CCCN3C)nc3c(F)c(-c4nc(N)cc(C)c4C(F)(F)F)c(Cl)cc23)C(C)C1,pIC50,second compound 0.00316 µM,< 5.00
same,pIC50,second compound 0.01 µM,< 5.00
same,pIC50,second compound 0.0316 µM,< 5.00
same,pIC50,second compound 0.1 µM,< 5.00
same,pIC50,second compound 0.316 µM,< 5.00
same,pIC50,second compound 1 µM,< 5.00
same,"viability, T/C",[1],101%
same,"viability, T/C",[2],92.4%
same,"viability, T/C",[3],89%
same,"viability, T/C",[4],82.2%
same,"viability, T/C",[5],98.5%
same,"viability, T/C",[6],92.1%
same,"viability, T/C",[7],97.7%
same,"viability, T/C",[8],94.6%
same,"viability, T/C",[9],80.8%
same,"viability, T/C",[10],91%
same,"viability, T/C",[11],96.8%
same,"viability, T/C",[12],81.1%
same,"viability, T/C",[13],104%
same,"viability, T/C",[14],102%
same,"viability, T/C",[15],95.4%
same,"viability, T/C",[16],98.5%
same,"viability, T/C",[17],97.3%
same,"viability, T/C",[18],99.5%
same,"viability, T/C",[19],96.4%
same,"viability, T/C",[20],102%
same,"viability, T/C",[21],95.6%
same,"viability, T/C",[22],94%
same,"viability, T/C",[23],96.3%
same,"viability, T/C",[24],91.7%
same,"viability, T/C",[25],110%
same,"viability, T/C",[26],102%
same,"viability, T/C",[27],107%
same,"viability, T/C",[28],103%
same,"viability, T/C",[29],98.1%
same,"viability, T/C",[30],93.5%
same,"viability, T/C",[31],110%
same,"viability, T/C",[32],106%
same,"viability, T/C",[33],92.9%
same,"viability, T/C",[34],97.4%
same,"viability, T/C",[35],107%
same,"viability, T/C",[36],82.2%

# From PubChem BioAssay AID2060882 (Molecular Pharmacology Branch, DTP, NCI, 2025)
